Test results taken from patent US4713367A, “Retro-inverso analogs of the bradykinin potentiating peptide BPP5a” (Enichem S.p.A., priority 1986, dated 1987).
*1 amine or outer side, *2 acyl side, *3 side chain or, on linkers, in order; H or OH if unused. Where a SMILES comes first, the peptide text is derived from it. [ ]: non-standard residue; d: D form. X1 = O=C([C@@H]1C[C@H](Sc2ccccc2)CN1[*:1])[*:2]; pGlu = O=C1CC[C@@H](C(=O)O)N1

Key:
[1] = test system: angiotensin converting enzyme; experiment: Degradation in vitro by the angiotensin converting enzyme; format: in vitro ADME; settings: in the presence of the angiotensin converting enzyme
[2] = target: T1, angiotensin converting enzyme (Oryctolagus cuniculus, UniProt P12822); experiment: Inhibition of the angiotensin converting enzyme (IC50); format: biochemical, rabbit; settings: for IC50: enzyme isolated from rabbit lungs (Cushman and Cheung)
T1 construct: The enzyme employed in this test has been isolated from rabbit lungs; from tissue; host or cells: rabbit lungs
T1 sequence (P12822 34-1310): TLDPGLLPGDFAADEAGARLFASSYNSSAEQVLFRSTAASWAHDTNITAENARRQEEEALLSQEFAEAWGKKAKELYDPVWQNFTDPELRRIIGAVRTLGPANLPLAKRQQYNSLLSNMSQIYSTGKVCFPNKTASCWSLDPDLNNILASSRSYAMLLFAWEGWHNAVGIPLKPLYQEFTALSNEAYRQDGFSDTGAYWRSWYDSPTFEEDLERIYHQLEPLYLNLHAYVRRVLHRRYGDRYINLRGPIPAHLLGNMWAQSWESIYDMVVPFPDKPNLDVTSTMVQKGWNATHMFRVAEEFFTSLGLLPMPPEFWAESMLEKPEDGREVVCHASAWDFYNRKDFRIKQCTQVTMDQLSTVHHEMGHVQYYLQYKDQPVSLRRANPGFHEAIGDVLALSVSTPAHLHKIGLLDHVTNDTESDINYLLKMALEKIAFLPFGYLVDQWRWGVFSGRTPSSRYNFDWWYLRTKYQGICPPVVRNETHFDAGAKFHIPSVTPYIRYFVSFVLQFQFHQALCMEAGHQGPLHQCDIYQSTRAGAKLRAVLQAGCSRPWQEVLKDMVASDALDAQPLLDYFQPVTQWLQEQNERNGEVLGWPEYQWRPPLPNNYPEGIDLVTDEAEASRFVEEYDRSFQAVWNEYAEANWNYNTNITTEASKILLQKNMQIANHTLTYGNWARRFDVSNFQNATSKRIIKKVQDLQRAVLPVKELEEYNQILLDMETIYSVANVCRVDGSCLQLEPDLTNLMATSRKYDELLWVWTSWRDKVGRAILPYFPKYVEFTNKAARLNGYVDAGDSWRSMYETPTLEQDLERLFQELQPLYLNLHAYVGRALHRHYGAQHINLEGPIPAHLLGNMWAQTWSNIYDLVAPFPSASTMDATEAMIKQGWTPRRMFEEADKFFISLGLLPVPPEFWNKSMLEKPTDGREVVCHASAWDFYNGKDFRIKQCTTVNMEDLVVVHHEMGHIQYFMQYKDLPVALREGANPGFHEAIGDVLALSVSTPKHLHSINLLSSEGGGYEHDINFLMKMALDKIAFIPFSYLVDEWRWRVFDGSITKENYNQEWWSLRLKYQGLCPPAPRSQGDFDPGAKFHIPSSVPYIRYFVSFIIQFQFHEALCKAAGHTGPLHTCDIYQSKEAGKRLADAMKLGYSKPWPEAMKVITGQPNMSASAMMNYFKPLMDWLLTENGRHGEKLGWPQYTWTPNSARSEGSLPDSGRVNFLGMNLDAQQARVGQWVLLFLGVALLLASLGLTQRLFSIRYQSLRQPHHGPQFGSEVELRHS
Description: In particular, comparative experiments carried out […] in order to evaluate the ACE inhibitory activity of the compounds of the present invention gave the results reported in following table I (IC50 represents the concentration of the test compound, in μM, which inhibits the angiotensin converting enzyme by 50%. The enzyme employed in this test has been isolated from rabbit lungs according to the method by Cushman and Cheung described in Biochem. Pharmacol. 20, 1637, (1971)).

[3] = test system: angiotensin converting enzyme; settings: 15 minutes of preincubation; cited from earlier work
angiotensin I = settings: infused directly into the brain; cited from earlier work
bradykinin = bradykinin injected directly into the coronary arteries; cited from earlier work
[4] = induced experimentally in rats; cited from earlier work
[5] = Hypotensive effect in anesthetized normotensive rats; format: in vivo, rat; settings: injected intravenously at 0.18 mg/Kg
Procedure: In vivo experiments carried out in anesthetized normotensive rats confirmed a hypotensive effect of the compounds of the invention as compound (a), when injected intravenously at a dosage of 0.18 mg/Kg, produced a blood pressure decrease of about 20 mmHg.

| Structure (SMILES) | degradation by / resistance towards cleavage by ACE [1] | IC50 [2] [nM] | further results |
| --- | --- | --- | --- |
| C[C@H](C(=O)N[C@H](Cc1ccccc1)NC(=O)[C@H](CCCCN)NC(=O)[C@@H]1CCC(=O)N1)C(=O)N1C[C@@H](Sc2ccccc2)C[C@H]1C(=O)O [(b), Glp--Lys--gPhe--(R)mAla--Pro(S--Ph)--OH] | complete resistance | – | – |
| C[C@H](NC(=O)[C@H](Cc1ccccc1)NC(=O)[C@H](CCCCN)NC(=O)[C@@H]1CCC(=O)N1)C(=O)N1CCC[C@H]1C(=O)O [(c), Glp--Lys--Phe--Ala--Pro--OH] ([pGlu]KFAP-OH) | quickly degraded | 100 | – |
| C[C@H](NC(=O)[C@H](Cc1c[nH]c2ccccc12)NC(=O)[C@H](CCCCN)NC(=O)[C@@H]1CCC(=O)N1)C(=O)N1CCC[C@H]1C(=O)O [(d), Glp--Lys--Trp--Ala--Pro--OH] ([pGlu]KWAP-OH) | quickly degraded | 100 | inhibitory activity after preincubation with the angiotensin converting enzyme [3]: complete loss of inhibitory activity; CNS-mediated hypertensive and tachycardic action of angiotensin I (angiotensin I): inhibits; in vivo activity of bradykinin (bradykinin): potentiates; control of reno-vascular hypertension [4]: capable of controlling |
| C[C@H](NC(=O)[C@H](Cc1ccccc1)NC(=O)[C@H](CCCCN)NC(=O)[C@@H]1CCC(=O)N1)C(=O)N1C[C@@H](Sc2ccccc2)C[C@H]1C(=O)O [(e), Glp--Lys--Phe--Ala--Pro(S--Ph)--OH] ([pGlu]KFA[X1]-OH) | quickly degraded | 60 | – |
| C[C@@H](C(=O)N[C@H](Cc1ccccc1)NC(=O)[C@H](CCCCN)NC(=O)[C@@H]1CCC(=O)N1)C(=O)N1CCC[C@H]1C(=O)O [(f), Glp--Lys--gPhe--(S)mAla--Pro--OH] | complete resistance | – | – |
| C[C@H](C(=O)N[C@H](Cc1ccccc1)NC(=O)[C@H](CCCCN)NC(=O)[C@@H]1CCC(=O)N1)C(=O)N1CCC[C@H]1C(=O)O [(g), Glp--Lys--gPhe--(R)mAla--Pro--OH] | complete resistance | – | – |
| CC(C(=O)N[C@H](Cc1ccccc1)NC(=O)[C@H](CCCCN)NC(=O)[C@@H]1CCC(=O)N1)C(=O)N1CCC[C@H]1C(=O)O (stereo partly drawn) [Glp-Lys-gPhe-mAla-Pro-OH] | – | – | IC50 relative to that of the natural product (BPP5a) or the uninverted peptide Glp-Lys-Phe-Ala-Pro-OH ([2]; in vitro): more than 1000 times higher |
| C[C@@H](C(=O)N[C@H](Cc1ccccc1)NC(=O)[C@H](CCCCN)NC(=O)[C@@H]1CCC(=O)N1)C(=O)N1C[C@@H](Sc2ccccc2)C[C@H]1C(=O)O [compound (a), Glp--Lys--gPhe--(S)mAla--Pro(S--Ph)--OH] | complete resistance | – | blood pressure decrease [5]: about 20 mmHg |
